Measurements from US8609836B2, “4-aryl-2-anilino-pyrimidines” (Janssen Pharmaceutica NV, priority 2008, dated 2013).

What was measured:
PLK4 (h) = PLK4 (h) (Homo sapiens, UniProt O00444); experiment: PLK-4 human kinase inhibition, scintillation proximity assay (SPA); assay type: biochemical; conditions: read-out: PLK4 pIC50 (converted)
CDK4/CyclinD1 (h) = CDK4/CyclinD1 (h) (Homo sapiens, UniProt P11802); experiment: CDK4/CyclinD1 human kinase inhibition, SPA with GST-pRb substrate; assay type: biochemical; conditions: read-out: CDK4 pIC50 (converted)
Outline: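 Scintillation proximity format: after EDTA/Triton stop containing glutathione SPA beads, 33P incorporation was counted. The reaction ran 60 min at room temperature in Hepes pH 7.5 with NaF, MgCl2, DTT, using 2.5 μg/ml human CDK4/CyclinD1, 40 μg/ml GST-pRb substrate and 2 nM [γ-33P]ATP.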

PLK2 (h) = PLK2 (h) (Homo sapiens, UniProt Q9NYY3); experiment: PLK2 human kinase inhibition, SPA; assay type: biochemical; conditions: read-out: PLK2 pIC50 (converted)
Outline: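 33P incorporation into a biotinylated peptide (2 μM) was captured on streptavidin PVT beads and imaged on Leadseeker. Enzyme at 30 μg/ml, ATP 0.1 μM with 2 nM [γ-33P]ATP, Hepes pH 8.0 with MnCl2 and DTT. Incubation was 20 min at room temperature.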

MDA-MB-231 = experiment: Cellular proliferation assay (Alamar blue), MDA-MB-231; assay type: cell-based; conditions: Homo sapiens, 10% FCS, 72 hours with compound, Alamar blue 24 h, read-out: MDA/MB231 (cellular proliferation assay, Table 4) (converted)
Outline: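 Growth inhibition measured after 72 h incubation with compound, following 24 h pre-culture at 37° C, 5% CO2 with 10% FCS. Resazurin-based read-out at 544/590 nm after 4 h (HCT-116), 6 h (U87-MG) or 24 h (A2780, MDA-MB-231); results relative to control.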

CDK4/CyclinD1 (h), sequence (P11802 whole entry): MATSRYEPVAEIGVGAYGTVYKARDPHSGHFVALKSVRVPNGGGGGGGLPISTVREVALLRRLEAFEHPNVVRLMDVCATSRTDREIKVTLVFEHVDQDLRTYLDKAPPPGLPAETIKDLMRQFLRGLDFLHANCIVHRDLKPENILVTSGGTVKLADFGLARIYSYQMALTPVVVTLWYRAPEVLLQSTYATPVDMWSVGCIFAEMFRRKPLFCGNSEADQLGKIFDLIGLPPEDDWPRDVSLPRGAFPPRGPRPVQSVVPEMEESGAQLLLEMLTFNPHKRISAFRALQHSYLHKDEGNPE
CDK4/CyclinD1 (h), sequence (P24385 whole entry partner): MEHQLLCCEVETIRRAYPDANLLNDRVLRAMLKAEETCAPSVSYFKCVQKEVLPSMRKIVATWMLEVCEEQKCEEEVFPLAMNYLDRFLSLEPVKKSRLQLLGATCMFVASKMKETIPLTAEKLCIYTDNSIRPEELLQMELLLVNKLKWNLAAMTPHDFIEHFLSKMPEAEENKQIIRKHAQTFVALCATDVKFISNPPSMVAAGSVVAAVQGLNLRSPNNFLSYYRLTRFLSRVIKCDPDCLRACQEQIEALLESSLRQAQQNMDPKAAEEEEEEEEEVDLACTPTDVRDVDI
PLK4 (h), sequence (O00444 whole entry): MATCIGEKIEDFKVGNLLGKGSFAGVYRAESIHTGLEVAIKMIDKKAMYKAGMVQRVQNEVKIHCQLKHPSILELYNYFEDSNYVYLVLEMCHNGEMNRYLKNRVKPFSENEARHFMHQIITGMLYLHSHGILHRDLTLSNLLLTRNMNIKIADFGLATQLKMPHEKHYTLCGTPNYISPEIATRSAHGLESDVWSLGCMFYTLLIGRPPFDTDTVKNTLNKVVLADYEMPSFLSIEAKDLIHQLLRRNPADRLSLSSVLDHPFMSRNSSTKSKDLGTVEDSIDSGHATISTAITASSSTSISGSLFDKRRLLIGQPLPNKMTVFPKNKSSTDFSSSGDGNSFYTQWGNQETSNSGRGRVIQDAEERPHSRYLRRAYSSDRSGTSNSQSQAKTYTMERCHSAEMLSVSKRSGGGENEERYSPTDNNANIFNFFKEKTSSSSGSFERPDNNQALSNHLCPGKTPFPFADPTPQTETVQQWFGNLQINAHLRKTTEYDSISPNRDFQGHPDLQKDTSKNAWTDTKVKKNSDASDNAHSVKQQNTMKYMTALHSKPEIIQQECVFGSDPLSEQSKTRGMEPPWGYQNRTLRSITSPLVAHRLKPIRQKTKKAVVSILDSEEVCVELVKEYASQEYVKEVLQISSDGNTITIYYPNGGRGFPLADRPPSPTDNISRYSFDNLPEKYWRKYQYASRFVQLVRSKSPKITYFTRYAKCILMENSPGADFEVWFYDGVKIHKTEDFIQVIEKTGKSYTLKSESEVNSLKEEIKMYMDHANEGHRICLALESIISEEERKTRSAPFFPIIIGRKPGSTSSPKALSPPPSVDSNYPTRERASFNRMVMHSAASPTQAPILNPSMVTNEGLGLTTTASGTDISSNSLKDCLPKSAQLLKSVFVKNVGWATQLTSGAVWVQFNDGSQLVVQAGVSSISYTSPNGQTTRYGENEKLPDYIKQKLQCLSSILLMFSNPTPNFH
PLK2 (h), sequence (Q9NYY3 whole entry): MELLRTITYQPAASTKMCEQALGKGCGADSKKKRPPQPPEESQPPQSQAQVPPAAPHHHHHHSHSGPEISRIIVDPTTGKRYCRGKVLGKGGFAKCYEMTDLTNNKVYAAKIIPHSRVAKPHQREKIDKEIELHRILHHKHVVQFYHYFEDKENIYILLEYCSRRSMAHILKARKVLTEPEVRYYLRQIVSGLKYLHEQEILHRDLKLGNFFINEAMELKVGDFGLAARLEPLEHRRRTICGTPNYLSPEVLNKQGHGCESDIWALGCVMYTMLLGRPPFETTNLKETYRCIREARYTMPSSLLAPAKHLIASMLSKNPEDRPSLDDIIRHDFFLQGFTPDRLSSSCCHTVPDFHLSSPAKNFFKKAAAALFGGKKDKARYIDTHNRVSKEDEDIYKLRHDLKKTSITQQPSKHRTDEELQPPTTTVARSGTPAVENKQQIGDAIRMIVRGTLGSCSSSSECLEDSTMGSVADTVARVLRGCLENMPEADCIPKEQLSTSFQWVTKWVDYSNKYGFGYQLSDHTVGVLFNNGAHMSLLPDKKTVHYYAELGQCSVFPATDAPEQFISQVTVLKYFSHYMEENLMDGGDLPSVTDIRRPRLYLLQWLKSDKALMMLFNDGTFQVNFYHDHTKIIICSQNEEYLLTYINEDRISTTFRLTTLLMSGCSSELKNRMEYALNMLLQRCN

SMILES	IC50 (PLK4 (h)) [µM]	IC50 (CDK4/CyclinD1 (h)) [µM]	IC50 (PLK2 (h)) [µM]	IC50 (MDA-MB-231) [µM]
COc1ccc2cc1CN(C)CCCNC(=O)CN1CCN(CC1)Cc1cccc(c1)Nc1nccc-2n1 [Compound 146]	6.76	> 10	> 10	> 10
O=C1NCCCNCc2ccc(cc2)-c2ccnc(n2)Nc2ccc(N3CCOCC3)c(c2)CN2C[C@H](O)C[C@@H]12 [Compound 169]	3.89	> 10	> 10	> 10
COc1ccc2cc1CN(C)CCNC(=O)C1CCN(CC1)Cc1cccc(c1)Nc1nccc-2n1 [Compound 83]	> 10	> 10	> 10	> 10
COc1ccc2cc1CN(C)CCNC(=O)CN1CCN(CC1)Cc1cccc(c1)Nc1nccc-2n1 [Compound 147]	> 10	> 10	> 10	> 10
CN1CCCNC(=O)[C@H](CO)NCc2cccc(c2)Nc2nccc(n2)-c2ccc(cc2)C1 [Compound 113]	1.17	> 10	> 10	> 10
COc1ccc2cc1CN(C)CCCNC(=O)CN1CCN(CC1)Cc1cc(Br)cc(c1)Nc1nccc-2n1 [Compound 144]	4.17	> 10	> 10	> 10
COc1ccc2cc1CN(C)CCCNC(=O)C1CCN(CC1)Cc1cccc(c1)Nc1nccc-2n1 [Compound 81]	5.5	> 10	> 10	> 10
COc1ccc2cc1CN(C)CCNC(=O)CN1CCN(CC1)Cc1cc(cc(N3CCOCC3)c1)Nc1nccc-2n1 [Compound 145]	4.37	> 10	> 10	> 10
COc1ccc2cc1CN(C)CCCNC(=O)CN1CCN(CC1)Cc1cc(cc(N3CCOCC3)c1)Nc1nccc-2n1 [Compound 141]	3.02	> 10	> 10	> 10

The next lines start with the values.

IC50 (PLK4 (h)) [µM]	IC50 (CDK4/CyclinD1 (h)) [µM]	IC50 (PLK2 (h)) [µM]	IC50 (MDA-MB-231) [µM]	SMILES
0.525	3.63	> 10	> 10	O=C1NCCCOc2cccc(c2)-c2ccnc(n2)Nc2ccc(N3CCOCC3)c(c2)CN[C@H]1CO [Compound 89]
> 10	> 10	> 10	> 10	COc1ccc2cc1CNCCNC(=O)[C@@H]1CCCN1Cc1cc(ccc1N1CCOCC1)Nc1nccc-2n1 [Compound 178]
0.0479	2.14	> 10	> 10	O=C1NCc2cccc(c2)-c2ccnc(n2)Nc2ccc(N3CCOCC3)c(c2)CN2CCC[C@@H]12 [Compound 1]
6.31	> 10	> 10	> 10	CN1CCNC(=O)C2CCN(CC2)Cc2cccc(c2)Nc2nccc(n2)-c2ccc(cc2)C1 [Compound 82]
0.162	1.23	> 10	2.09	O=C1NCc2cccc(c2)-c2ccnc(n2)Nc2cc(CNC3CCOCC3)cc(c2)CN2CCC[C@@H]12 [Compound 29]
0.316	6.46	> 10	> 10	O=C1NCCCOc2ccc(cc2)-c2ccnc(n2)Nc2ccc(N3CCOCC3)c(c2)CN2CCC[C@@H]12 [Compound 7]
0.219	1.2	> 10	1.82	O=C1NCc2cccc(c2)-c2ccnc(n2)Nc2cc(CNC3CCCCC3)cc(c2)CN2CCC[C@@H]12 [Compound 36]
0.537	> 10	> 10	> 10	CN1CCNC(=O)C2CCN(CC2)Cc2cc(Br)cc(c2)Nc2nccc(n2)-c2ccc(cc2)C1 [Compound 60]
0.0692	2.75	> 10	1.7	O=C1NCc2cccc(c2)-c2ccnc(n2)Nc2cc(CN3CCOCC3)cc(c2)CN2CCC[C@@H]12 [Compound 22]
> 10	> 10	> 10	> 10	COc1ccc2cc1CN(C)CCCNC(=O)[C@@H]1CCCN1Cc1cccc(c1)Nc1nccc-2n1 [Compound 180]
